One experiment has as its system RKO cells. Briefly: In vitro killing of tumor cells by T cells (NK-92) with CBD, crystal violet. The class given is cell-based. To be noted: CBD 5, 10, 20 μM 12 h, then NK-92 cells 1:500, 24 h; vs control. The protocol: RKO cells in the logarithmic growth phase were inoculated into a 12-well plate at a density of 5×10^4 cells/mL and placed in a 5% CO2 incubator for growth adhering to a wall overnight. The supernatant was removed, CBD at different concentrations (0 μM, 5 μM, 10 μM, and 20 μM) was added, and the cells were coincubated for 12 h. NK-92 cells (T cells) were added at 1:500, the cells were cultured for 24 h, and a control group without the NK-92 cells was set at the same time. The supernatant was removed, PBS was used for washing 2 times, and 4% paraformaldehyde was added to fix the cells. Then, PBS was used for washing 2 times, crystal violet was added for dyeing for 30 min, and finally, redundant crystal violet was washed away with PBS, and photographing was performed to collect the data.

In another experiment the test system is MC38 colon cancer cells. Briefly: MC38 subcutaneous tumor model in C57BL/6 mice, Embodiment 5. The class given is in vivo. To be noted: for Tumor volume: CBD 100 mg/kg, PAR 5 mg/kg, vitamin E 50 mg/kg. The protocol:
MC38 colon cancer cells were inoculated into 6-week-old female C57BL/6 mice (1×10^6 cells/mouse) to establish a subcutaneous tumor model. After the tumor volume reached 50 mm^3, the mice were grouped and administered with the following pharmaceutical combinations: (1) control group (no drug administration), (2) anti-PD-1 ([…] per time) group, (3) vitamin E(α-tocopherol) (50 mg/kg) group, (4) CBD (100 mg/kg) group, (5) CBD (100 mg/kg)+vitamin E(α-tocopherol) (50 mg/kg) group, (6) PAR (5 mg/kg) group, (7) PAR (5 mg/kg)+vitamin E(α-tocopherol) (50 mg/kg) group, (8) CBD (100 mg/kg)+PAR (5 mg/kg) group, and (9) PAR (5 mg/kg)+CBD (100 mg/kg)+vitamin E(α-tocopherol) (50 mg/kg) group.
The tumor weight, tumor volume, and mouse body weight were monitored once every 2 days. The tumor volume was calculated as follows: tumor volume (mm^3)=0.5×(length)×(width)^2. The mice were sacrificed 14 days after drug administration, and the tumors were dissected.
The dissolving mode of the pharmaceutical composition was as follows: the pharmaceutical composition was dissolved in 10% DMSO+corn oil, the mice were gavaged with the pharmaceutical composition at 100 μl/mice, and the mice in the control group were injected with the same volume of the solvent.

Molecules are shown by their SMILES.

For the compound `C=C(C)[C@@H]1CCC(C)=C[C@H]1c1c(O)cc(CCCCC)cc1O` [CBD, cannabidiol], in the experiment with RKO cells, the “viability of RKO cells in CBD+T cells coculture” value is on record as “significantly reduced the viability of RKO cells”. The Tumor volume with MC38 colon cancer cells (Day 0) stood at 0 mm^3; with MC38 colon cancer cells (Day 4) it was 63.99 mm^3; with MC38 colon cancer cells (Day 6) it was 113.24 mm^3; with MC38 colon cancer cells (Day 8), 120.48 mm^3; in the experiment with MC38 colon cancer cells (Day 10), 176.51 mm^3; in the experiment on MC38 colon cancer cells (Day 12), 241.75 mm^3. Further, the Tumor volume in the experiment on MC38 colon cancer cells (Day 14) was 314.83 mm^3; in the experiment on MC38 colon cancer cells (Day 16), 359.72 mm^3. Besides, the “therapeutic / tumor inhibition effect in words” value with MC38 colon cancer cells (normal mice, Embodiment 5, comparison between groups) was “equivalent therapeutic effects”.

Values taken from patent US12599596B2, “Anti-tumor pharmaceutical composition based on immune checkpoint blockade and use thereof” (Shanghai Hui Tian Jin Ze Biotech Co., Ltd., priority 2023, dated 2026).
